Assays:
FAP^+ U-87 cells = test: Cytotoxicity assay (resazurin) in U-87 cells; type: cell-based; settings: single dose 1 µM, incubation time not stated
Protocol: In 96-well plates, U-87 cells (3 × 10^3) were seeded in each well and incubated at 37 °C and 5% CO2 for 24 h. The medium was removed and the wells were washed once with PBS. The cytotoxic drug (positive control) or the eFAP conjugate containing the drug were prepared at various concentrations (i.e., 1, 10, 100, 1000 nM) in DMEM culture medium, supplemented with 2 mM L-glutamine, 10% FBS, 50 units/mL penicillin, and 50 µg/mL streptomycin. Medium was used as a negative control. Cells were incubated with 100 µL of the tested compounds for 1, 24, 48, and 72 h. After incubation, medium was removed and each well was washed once with PBS. Next, 100 µL of 10% resazurin solution in culture medium was added to each well and incubated for 2.5 h. Fluorescence measurements were carried out using a microplate reader at 544 nm excitation and 590 nm emission.

[1] = LogD7.4 shake-flask method (n-octanol/PBS); type: physicochemical; settings: radiolabeled compound; n-octanol/PBS pH 7.4; triplicates
Protocol: Distribution coefficients (LogD7.4 values) were determined by a shake-flask method. Sample containing the ^203Pb-labeled compound was added to a vial containing 600 µL PBS (pH 7.4) and 600 µL n-octanol. The vial was vortexed vigorously and then centrifuged for 10 min for phase separation. Samples of the octanol (200 µL) and aqueous (200 µL) phases were taken and counted on a PerkinElmer WIZARD 2480 gamma counter. LogD7.4 value was calculated by using the equation: LogD7.4 = log [(counts in octanol phase)/(counts in aqueous phase)]. All the experiments were performed in triplicates.

FAP = biological target: T1, FAP (Homo sapiens, UniProt Q12884); test: In vitro inhibition assay on human FAP (Z-GP-AMC substrate); type: biochemical; settings: enzymatic assay; 20 µM Z-GP-AMC, 20 nM FAP; unit inferred
T1 sequence (Q12884 1-760): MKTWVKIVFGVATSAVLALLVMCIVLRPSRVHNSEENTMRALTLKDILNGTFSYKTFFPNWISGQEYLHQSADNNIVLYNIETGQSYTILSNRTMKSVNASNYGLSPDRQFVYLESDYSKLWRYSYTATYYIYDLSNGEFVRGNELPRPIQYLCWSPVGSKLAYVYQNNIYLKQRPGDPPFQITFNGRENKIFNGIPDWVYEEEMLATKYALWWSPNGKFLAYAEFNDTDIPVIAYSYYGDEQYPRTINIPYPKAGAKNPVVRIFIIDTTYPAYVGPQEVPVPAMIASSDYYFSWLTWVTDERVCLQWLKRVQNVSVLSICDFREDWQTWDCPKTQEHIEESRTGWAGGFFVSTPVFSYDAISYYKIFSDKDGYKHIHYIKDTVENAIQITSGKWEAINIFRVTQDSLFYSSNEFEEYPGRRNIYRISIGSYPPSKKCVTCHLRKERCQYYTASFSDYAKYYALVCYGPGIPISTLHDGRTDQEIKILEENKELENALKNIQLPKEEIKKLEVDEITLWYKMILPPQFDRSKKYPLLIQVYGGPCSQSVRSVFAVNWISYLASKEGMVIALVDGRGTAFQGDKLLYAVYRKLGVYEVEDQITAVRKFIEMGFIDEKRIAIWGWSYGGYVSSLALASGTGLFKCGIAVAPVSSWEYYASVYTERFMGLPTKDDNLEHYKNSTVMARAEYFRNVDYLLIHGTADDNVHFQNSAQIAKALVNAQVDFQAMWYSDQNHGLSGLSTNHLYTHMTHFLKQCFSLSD
Protocol: Enzymatic activity of human FAP (hFAP) and mouse FAP (mFAP) on the Z-GP-AMC substrate was measured at room temperature on a Hidex microplate reader by monitoring the fluorescence at an excitation wavelength of 360 nm and an emission wavelength of 465 nm. The reaction mixture contained 20 µM substrate, 20 nM FAP, assay buffer (50 mM Tris, 100 mM NaCl, 1 mM EDTA, pH 7.4) and tested compound (serial dilution from 10^-6 to 10^-12) in a total volume of 50 µL.

U-87 tumor = test: Near-infrared fluorescence imaging of U-87 tumor bearing mice; type: in vivo; settings: 2 nmol intravenous
Excerpt: Six-week-old male Balb/c nu/nu-specific and opportunistic pathogen-tree (SOPF) mice were housed in individually ventilated cages, with 4 mice per cage. Upon arrival, mice were acclimated for 1 week, with access to food and water ad libitum. Mice were subcutaneously inoculated on the right shoulder with U-87 or HT-1080.hFAP cells (1 × 10^6 cells). Xenografts were allowed to grow until they reached an appropriate size at the start of the studies. All animal experiments were approved by the Animal Welfare Committee of the Erasmus MC and were conducted in agreement with institutional guidelines (license number: AVD101002017867).
Evaluation of targeting performance of eFAP-17 in near-infrared fluorescence imaging of U-87 tumor bearing mice after intravenous injection of 2 nmol of the probe are given in Figure 9 showing A) NIRF imaging of U-87 tumor bearing mice at 1 h after intravenous injection of 2 nmol of CW800 (left, negative control) or eFAP-17 (right) and B) image of excised tumors 2.5 h post administration of CW800 (left) or eFAP-17 (right).

Compound	LogD7.4 [1]	IC50 (FAP) [nM]	also measured
COc1cc2cc(c1Cl)N(C)C(=O)C[C@H](OC(=O)[C@H](C)N(C)C(=O)CCS)[C@]1(C)O[C@H]1[C@H](C)[C@@H]1C[C@@](O)(NC(=O)O1)[C@H](OC)/C=C/C=C(\C)C2 [DM1, Mertansine]			cell viability (FAP^+ U-87 cells): 40%
N#C[C@@H]1CC(F)(F)CN1C(=O)CNC(=O)c1ccnc2c(OCCCNC(=O)CCC(C(=O)O)N3CCN(CC(=O)O)CCN(CC(=O)O)CCN(CC(=O)O)CC3)cccc12 (stereo partly drawn) [eFAP-8, 2,2',2"-(10-(1-Carboxy-4-((3-((4-((2-((S)-2-cyano-4,4-difluoropyrrolidin-1-yl)-2-oxoethyl)carbamoyl)quinolin-8-yl)oxy)propyl)amino)-4-oxobutyl)-1,4,7,10-tetraazacyclododecane-1,4,7-triyl)triacetic acid]	-3.58 ± 0.09	1.7 ± 0.5	
N#C[C@@H]1CC(F)(F)CN1C(=O)CNC(=O)c1ccnc2c(OCCCNC(=O)C3CCC(CNC(=O)CN4CCN(CC(=O)O)CCN(CC(=O)O)CCN(CC(=O)O)CC4)CC3)cccc12 (stereo partly drawn) [eFAP-9, 2,2',2"-(10-(2-(((4-((3-((4-((2-((S)-2-Cyano-4,4-difluoropyrrolidin-1-yl)-2-oxoethyl)carbamoyl)quinolin-8-yl)oxy)propyl)carbamoyl)cyclohexyl)methyl)amino)-2-oxoethyl)-1,4,7,10-tetraazacyclododecane-1,4,7-triyl)triacetic acid]	-3.47 ± 0.07	3.6 ± 2.3	
N#C[C@@H]1CC(F)(F)CN1C(=O)CNC(=O)c1ccnc2c(OCCCNC(=O)CN3CCC(NC(=O)CN4CCN(CC(=O)O)CCN(CC(=O)O)CCN(CC(=O)O)CC4)CC3)cccc12 [eFAP-10, (S)-2,2',2"-(10-(2-((1-(2-((3-((4-((2-(2-Cyano-4,4-difluoropyrrolidin-1-yl)-2-oxoethyl)carbamoyl)quinolin-8-yl)oxy)propyl)amino)-2-oxoethyl)piperidin-4-yl)amino)-2-oxoethyl)-1,4,7,10-tetraazacyclododecane-1,4,7-triyl)triacetic acid]	-3.64 ± 0.02		
N#C[C@@H]1CC(F)(F)CN1C(=O)CNC(=O)c1ccnc2c(OCCCNC(=O)COCC(=O)Nc3ccc(CNC(=O)CN4CCN(CC(=O)O)CCN(CC(=O)O)CCN(CC(=O)O)CC4)cc3)cccc12 [eFAP-11, (S)-2,2',2"-(10-(2-((4-(2-(2-((3-((4-((2-(2-Cyano-4,4-difluoropyrrolidin-1-yl)-2-oxoethyl)carbamoyl)quinolin-8-yl)oxy)propyl)amino)-2-oxoethoxy)acetamido)benzyl)amino)-2-oxoethyl)-1,4,7,10-tetraazacyclododecane-1,4,7-triyl)triacetic acid]	-3.34 ± 0.07	1.8 ± 0.8	
N#C[C@@H]1CC(F)(F)CN1C(=O)CNC(=O)c1ccnc2c(OCCCNC(=O)CN3CCN(C(=O)CN4CCN(CC(=O)O)CCN(CC(=O)O)CCN(CC(=O)O)CC4)CC3)cccc12 [eFAP-12, (S)-2,2',2"-(10-(2-(4-(2-((3-((4-((2-(2-Cyano-4,4-difluoropyrrolidin-l-yl)-2-oxoethyl)carbamoyl)quinolin-8-yl)oxy)propyl)amino)-2-oxoethyl)piperazin-1-yl)-2-oxoethyl)-1,4,7,10-tetraazacyclododecane-1,4,7-triyl)triacetic acid]	-3.72 ± 0.08		
N#C[C@@H]1CC(F)(F)CN1C(=O)CNC(=O)c1ccnc2c(OCCCNC(=O)CN3CCN(CCNC(=O)CN4CCN(CC(=O)O)CCN(CC(=O)O)CCN(CC(=O)O)CC4)CC3)cccc12 [eFAP-13, (S)-2,2',2"-(10-(2-((2-(4-(2-((3-((4-((2-(2-Cyano-4,4-difluoropyrrolidin-1-yl)-2-oxoethyl)carbamoyl)quinolin-8-yl)oxy)propyl)amino)-2-oxoethyl)piperazin-1-yl)ethyl)amino)-2-oxoethyl)-1,4,7,10-tetraazacyclododecane-1,4,7-triyl)triacetic acid]	-3.28 ± 0.15	1.7 ± 0.5	
CC1(C)C(/C=C/C2=C(Oc3ccc(S(=O)(=O)O)cc3)C(=C/C=C3/N(CCCCCC(=O)NCCCOc4cccc5c(C(=O)NCC(=O)N6CC(F)(F)C[C@H]6C#N)ccnc45)c4ccc(S(=O)(=O)O)cc4C3(C)C)/CCC2)=[N+](CCCCS(=O)(=O)[O-])c2ccc(S(=O)(=O)O)cc21 [eFAP-17, 4-(2-((E)-2-((E)-3-(2-((E)-1-(6-((3-((4-((2-((S)-2-Cyano-4,4-difluoropyrrolidin-1-yl)-2-oxoethyl)carbamoyl)quinolin-8-yl)oxy)propyl)amino)-6-oxohexyl)-3,3-dimethyl-5-sulfoindolin-2-ylidene)ethylidene)-2-(4-sulfophenoxy)cyclohex-1-en-1-yl)vinyl)-3,3-dimethyl-5-sulfo-3H-indol-1-ium-1-yl)butane-1-sulfonate]		5.6 ± 1.6	accumulation in healthy tissues (U-87 tumor; NIRF imaging): low accumulation in healthy tissues; uptake in the FAP overexpressing tumor (U-87 tumor; NIRF imaging at 1 h, excised tumors 2.5 h): high uptake in the FAP overexpressing tumor
(1^4S,1^6S,3^2S,3^3S,2R,4S,10E,12E,14R)-8^6-chloro-1^4-hydroxy-8^5,14-dimethoxy-3^3,2,7,10-tetramethyl-1^2,6-dioxo-7-aza-1(6,4)-oxazinana-3(2,3)-oxirana-8(1,3)-benzenacyclotetradecaphane-10,12-dien-4-yl N-(3-((3-((3-((4-((2-((S)-2-cyano-4,4-difluoropyrrolidin-1-yl)-2-oxoethyl)carbamoyl)quinolin-8-yl)oxy)propyl)amino)-3-oxopropyl)disulfaneyl)propanoyl)-N-methyl-L-alaninate [eFAP-18]			cell viability (FAP^+ U-87 cells): approximately 25%
